Measurements: patent publication US12325706B2, “Polymorphic form of sepiapterin” (PTC Therapeutics MP, Inc., priority 2016, dated 2025)

Key:
[1] = Storage stability of sepiapterin polymorph forms, form change by XRD; format: physicochemical
Description: (§1) Form A and F samples were placed in chambers with silica gel to remove water (the relative humidity was measured to be ˜10% RH) at different temperatures. Form D samples were placed in chambers with water (relative humidity was estimated to be ˜100% RH) at different temperatures.
(§2) The HPLC purities and XRD patterns were obtained for each of Form A/F/D samples stored at various temperatures.

[2] = Storage stability of sepiapterin polymorph forms, HPLC purity; format: physicochemical; design: Impurity RRT 1.06 (HPLC) / Impurity RRT 1.08 (HPLC) / Impurity RRT 1.17 (HPLC) / Impurity RRT 1.21 (HPLC) / Impurity RRT 1.25 (HPLC) / Impurity RRT 0.62 (HPLC) / Impurity RRT 0.89 (HPLC) / Impurity RRT 0.95 (HPLC) / Impurity RRT 0.60 (HPLC): unit not given here; settings: for Purity of initial samples by HPLC: before storage; for Stability on storage as determined by HPLC, comparison of forms in words: storage up to 4 weeks at RT
Description: as §1, §2
Samples of sepiapterin free base polymorph Forms D, F, and A were stored at room temperature (RT), 35° C., and 50° C. The samples were analyzed by HPLC at 1 week and 4 week intervals.

[3] = storage 1 week, 35° C., 100% RH
[4] = storage 1 week, 50° C., 100% RH
[5] = storage 4 weeks, 35° C., 100% RH
[6] = storage 4 weeks, 50° C., 100% RH
[7] = storage 4 weeks, 35° C., 10% RH
[8] = storage 4 weeks, 50° C., 10% RH
[9] = 35° C./10% RH, 1 w, listed as Polymorph F
[10] = 35° C./10% RH, 4 w, listed as Polymorph F
[11] = 50° C./10% RH, 1 w, listed as Polymorph F
[12] = 50° C./10% RH, 4 w, listed as Polymorph F
[13] = RT/10% RH, 1 w, listed as Polymorph F
[14] = RT/10% RH, 4 w, listed as Polymorph F

With `C[C@H](O)C(=O)C1=Nc2c(nc(N)[nH]c2=O)NC1` [Form D, sepiapterin] the Form change [1, 3] was “No”, the Form change [1, 4] was “No” and the Form change ([1]; storage 1 week, RT, 100% RH) was “No”. The Form change [1, 5] was “No”, the Form change [1, 6] was “No” and the Form change ([1]; storage 4 weeks, RT, 100% RH) was “No”. The “Impurity RRT 0.62 (HPLC)” value ([2]; 35° C./100% RH, 1 w) was <0.05, the “Impurity RRT 0.95 (HPLC)” value ([2]; 35° C./100% RH, 1 w) was 0.86 and the “Impurity RRT 1.08 (HPLC)” value ([2]; 35° C./100% RH, 1 w) was 0.14. For the same molecule, the “Impurity RRT 1.17 (HPLC)” value ([2]; 35° C./100% RH, 1 w) was 0.17, the “Sepiapterin RRT 1.00 (HPLC), amount of sepiapterin” value (shortened to “Sepiapterin RRT 1.00 (HPLC), amount”) ([2]; 35° C./100% RH, 1 w) was 98.83% and the “Impurity RRT 0.62 (HPLC)” value ([2]; 35° C./100% RH, 4 w) was 0.09. The “Impurity RRT 0.95 (HPLC)” value ([2]; 35° C./100% RH, 4 w) was 1.04, the “Impurity RRT 1.08 (HPLC)” value ([2]; 35° C./100% RH, 4 w) was <0.05 and the “Impurity RRT 1.17 (HPLC)” value ([2]; 35° C./100% RH, 4 w) was 0.17. For the same molecule, the “Sepiapterin RRT 1.00 (HPLC), amount” value ([2]; 35° C./100% RH, 4 w) was 98.70%, the “Impurity RRT 0.62 (HPLC)” value ([2]; 50° C./100% RH, 1 w) was 0.08 and the “Impurity RRT 0.95 (HPLC)” value ([2]; 50° C./100% RH, 1 w) was 1.05. For the same molecule, the “Impurity RRT 1.08 (HPLC)” value ([2]; 50° C./100% RH, 1 w) was 0.26, the “Impurity RRT 1.17 (HPLC)” value ([2]; 50° C./100% RH, 1 w) was 0.16 and the “Sepiapterin RRT 1.00 (HPLC), amount” value ([2]; 50° C./100% RH, 1 w) was 98.45%. For the same molecule, the “Impurity RRT 0.62 (HPLC)” value ([2]; 50° C./100% RH, 4 w) was 0.14, the “Impurity RRT 0.95 (HPLC)” value ([2]; 50° C./100% RH, 4 w) was 2.03 and the “Impurity RRT 1.08 (HPLC)” value ([2]; 50° C./100% RH, 4 w) was <0.05. For the same molecule, the “Impurity RRT 1.17 (HPLC)” value ([2]; 50° C./100% RH, 4 w) was 0.18, the “Sepiapterin RRT 1.00 (HPLC), amount” value ([2]; 50° C./100% RH, 4 w) was 97.65% and the “Impurity RRT 1.08 (HPLC)” value ([2]; Initial) was <0.05. The “Impurity RRT 1.17 (HPLC)” value ([2]; Initial) was 0.17, the “Impurity RRT 0.62 (HPLC)” value ([2]; Initial, listed as Polymorph D) was <0.05 and the “Impurity RRT 0.95 (HPLC)” value ([2]; Initial, listed as Polymorph D) was 0.69. For the same molecule, the “Sepiapterin RRT 1.00 (HPLC), amount” value ([2]; Initial, listed as Polymorph D) was 99.14%, the “Sepiapterin RRT 1.00 (HPLC), amount” value ([2]; Initial, listed as polymorph D) was 99.14% and the “Impurity RRT 0.62 (HPLC)” value ([2]; RT/100% RH, 1 w) was <0.05. The “Impurity RRT 0.95 (HPLC)” value ([2]; RT/100% RH, 1 w) was 0.83, the “Impurity RRT 1.08 (HPLC)” value ([2]; RT/100% RH, 1 w) was <0.05 and the “Impurity RRT 1.17 (HPLC)” value ([2]; RT/100% RH, 1 w) was 0.16. The “Sepiapterin RRT 1.00 (HPLC), amount” value ([2]; RT/100% RH, 1 w) was 99.01%, the “Impurity RRT 0.62 (HPLC)” value ([2]; RT/100% RH, 4 w) was 0.09 and the “Impurity RRT 0.95 (HPLC)” value ([2]; RT/100% RH, 4 w) was 0.81. For the same molecule, the “Impurity RRT 1.08 (HPLC)” value ([2]; RT/100% RH, 4 w) was <0.05, the “Impurity RRT 1.17 (HPLC)” value ([2]; RT/100% RH, 4 w) was 0.17 and the “Sepiapterin RRT 1.00 (HPLC), amount” value ([2]; RT/100% RH, 4 w) was 98.92%. The “Purity of initial samples by HPLC” value [2] was 99.1 area %, the “% of Initial” value [2, 3] was 99.7% and the “Purity (area %)” value [2, 3] was 98.8 area %. For the same molecule, the “% of Initial” value [2, 4] was 99.3%, the “Purity (area %)” value [2, 4] was 98.5 area % and the “% of Initial” value ([2]; storage 1 week, RT, 100% RH) was 99.9%. The “Purity (area %)” value ([2]; storage 1 week, RT, 100% RH) was 99.0 area %, the “% of Initial” value [2, 5] was 99.6% and the “Purity (area %)” value [2, 5] was 98.7 area %. For the same molecule, the “% of Initial” value [2, 6] was 98.5%, the “Purity (area %)” value [2, 6] was 97.7 area % and the “% of Initial” value ([2]; storage 4 weeks, RT, 100% RH) was 99.8%. For the same molecule, the “Purity (area %)” value ([2]; storage 4 weeks, RT, 100% RH) was 98.9 area % and the “Stability on storage as determined by HPLC, comparison of forms in words” value ([2]; 35° C., 50° C., listed as polymorph D) was “significantly greater stability than polymorph A”.

With `C[C@H](O)C(=O)C1=Nc2c(nc(N)[nH]c2=O)NC1` [Form F, sepiapterin] the Form change ([1]; storage 1 week, 35° C., 10% RH) was “No”, the Form change ([1]; storage 1 week, 50° C., 10% RH) was “No” and the Form change ([1]; storage 1 week, RT, 10% RH) was “No”. For the same molecule, the Form change [1, 7] was “No”, the Form change [1, 8] was “No” and the Form change ([1]; storage 4 weeks, RT, 10% RH) was “No”. The “Impurity RRT 0.60 (HPLC)” value ([2]; 35° C./10% RH, 1 w) was <0.05, the “Impurity RRT 0.95 (HPLC)” value [2, 9] was 0.35 and the “Impurity RRT 1.08 (HPLC)” value [2, 9] was 0.06. For the same molecule, the “Impurity RRT 1.17 (HPLC)” value [2, 9] was 0.15, the “Sepiapterin RRT 1.00 (HPLC), amount” value [2, 9] was 99.43% and the “Impurity RRT 0.60 (HPLC)” value ([2]; 35° C./10% RH, 4 w) was <0.05. For the same molecule, the “Impurity RRT 1.08 (HPLC)” value ([2]; 35° C./10% RH, 4 w) was <0.05, the “Impurity RRT 0.95 (HPLC)” value [2, 10] was 0.42 and the “Impurity RRT 1.17 (HPLC)” value [2, 10] was 0.15. The “Sepiapterin RRT 1.00 (HPLC), amount” value [2, 10] was 99.43%, the “Impurity RRT 0.60 (HPLC)” value ([2]; 50° C./10% RH, 1 w) was <0.05 and the “Impurity RRT 0.95 (HPLC)” value [2, 11] was 0.58. For the same molecule, the “Impurity RRT 1.08 (HPLC)” value [2, 11] was 0.11, the “Impurity RRT 1.17 (HPLC)” value [2, 11] was 0.15 and the “Sepiapterin RRT 1.00 (HPLC), amount” value [2, 11] was 99.15%. For the same molecule, the “Impurity RRT 0.60 (HPLC)” value ([2]; 50° C./10% RH, 4 w) was 0.12, the “Impurity RRT 1.17 (HPLC)” value ([2]; 50° C./10% RH, 4 w) was 0.17 and the “Impurity RRT 0.95 (HPLC)” value [2, 12] was 0.86. The “Impurity RRT 1.08 (HPLC)” value [2, 12] was <0.05, the “Sepiapterin RRT 1.00 (HPLC), amount” value [2, 12] was 98.85% and the “Sepiapterin RRT 1.00 (HPLC), amount” value ([2]; 50° C./10% RH, 4 w, listed as polymorph F) was 98.85%. For the same molecule, the “Impurity RRT 0.60 (HPLC)” value ([2]; Initial) was <0.05, the “Impurity RRT 1.08 (HPLC)” value ([2]; Initial) was <0.05 and the “Impurity RRT 1.17 (HPLC)” value ([2]; Initial) was 0.17. The “Impurity RRT 0.95 (HPLC)” value ([2]; Initial, listed as Polymorph F) was 0.09, the “Sepiapterin RRT 1.00 (HPLC), amount” value ([2]; Initial, listed as Polymorph F) was 99.74% and the “Sepiapterin RRT 1.00 (HPLC), amount” value ([2]; Initial, listed as polymorph F) was 99.74%. The “Impurity RRT 0.60 (HPLC)” value ([2]; RT/10% RH, 1 w) was <0.05, the “Impurity RRT 1.17 (HPLC)” value ([2]; RT/10% RH, 1 w) was 0.16 and the “Impurity RRT 0.95 (HPLC)” value [2, 13] was 0.29. For the same molecule, the “Impurity RRT 1.08 (HPLC)” value [2, 13] was 0.14, the “Sepiapterin RRT 1.00 (HPLC), amount” value [2, 13] was 99.42% and the “Impurity RRT 0.60 (HPLC)” value ([2]; RT/10% RH, 4 w) was <0.05. The “Impurity RRT 1.08 (HPLC)” value ([2]; RT/10% RH, 4 w) was <0.05, the “Impurity RRT 1.17 (HPLC)” value ([2]; RT/10% RH, 4 w) was 0.16 and the “Impurity RRT 0.95 (HPLC)” value [2, 14] was 0.30. The “Sepiapterin RRT 1.00 (HPLC), amount” value [2, 14] was 99.54%, the “Purity of initial samples by HPLC” value [2] was 99.7 area % and the “% of Initial” value ([2]; storage 1 week, 35° C., 10% RH) was 99.7%. For the same molecule, the “Purity (area %)” value ([2]; storage 1 week, 35° C., 10% RH) was 99.4 area %, the “% of Initial” value ([2]; storage 1 week, 50° C., 10% RH) was 99.4% and the “Purity (area %)” value ([2]; storage 1 week, 50° C., 10% RH) was 99.2 area %. For the same molecule, the “% of Initial” value ([2]; storage 1 week, RT, 10% RH) was 99.7%, the “Purity (area %)” value ([2]; storage 1 week, RT, 10% RH) was 99.4 area % and the “% of Initial” value [2, 7] was 99.7%. For the same molecule, the “Purity (area %)” value [2, 7] was 99.4 area %, the “% of Initial” value [2, 8] was 99.1% and the “Purity (area %)” value [2, 8] was 98.9 area %. The “% of Initial” value ([2]; storage 4 weeks, RT, 10% RH) was 99.8%, the “Purity (area %)” value ([2]; storage 4 weeks, RT, 10% RH) was 99.5 area % and the “Stability on storage as determined by HPLC, comparison of forms in words” value ([2]; 35° C., 50° C., listed as polymorph F) was “significantly greater stability than polymorph A”.
